Measurements as given in ChEMBL document CHEMBL3120047, “Ligand bioactive conformation plays a critical role in the design of drugs that target the hepatitis C virus NS3 protease” (J Med Chem, 2014).
Non-standard residues stand in square brackets, D forms with d. Residues, ends and D or L forms follow the SMILES beside them. *: point of attachment. Hyp = O=C(O)[C@@H]1C[C@@H](O)CN1; Nva = CCC[C@H](N)C(=O)O; Bn = c1ccc(C*)cc1

Experiment: Inhibition of HCV genotype 1b NS3/NS4A protease using DDIVPCSMSYTW as substrate by radiometric enzymatic assay
Parameters: species or system Hepatitis C virus subtype 1b

IC50 | Ki | Molecule
71000 nM | 19000 nM | H-DDIVPC-OH
– | > 600000 nM | C=C[C@@H]1C[C@]1(NC(=O)[C@@H]1CCCN1C(=O)[C@@H](NC(=O)OC(C)(C)C)C(C)(C)C)C(=O)O
– | 28000 nM | C=C[C@@H]1C[C@]1(NC(=O)[C@@H]1C[C@@H](Oc2cc(-c3ccccc3)nc3cc(OC)ccc23)CN1C(C)=O)C(=O)O
– | 3000 nM | C=C[C@@H]1C[C@]1(NC(=O)[C@@H]1C[C@@H](Oc2cc(-c3ccccc3)nc3cc(OC)ccc23)CN1C(=O)CNC(=O)OC(C)(C)C)C(=O)O
– | 20 nM | C=C[C@@H]1C[C@]1(NC(=O)[C@@H]1C[C@@H](Oc2cc(-c3ccccc3)nc3cc(OC)ccc23)CN1C(=O)[C@@H](NC(=O)OC(C)(C)C)C(C)(C)C)C(=O)O
– | 310 nM | C=C[C@@H]1C[C@]1(NC(=O)[C@@H]1C[C@@H](Oc2cc(-c3ccccc3)nc3cc(OC)ccc23)CN1C(=O)[C@H](C)NC(=O)OC(C)(C)C)C(=O)O
– | 29000 nM | C=C[C@@H]1C[C@]1(NC(=O)[C@@H]1C[C@@H](Oc2ccccc2)CN1C(=O)[C@@H](NC(=O)OC(C)(C)C)C(C)(C)C)C(=O)O
– | 140 nM | C=C[C@@H]1C[C@]1(NC(=O)[C@@H]1C[C@@H](Oc2ccnc3ccccc23)CN1C(=O)[C@@H](NC(=O)OC(C)(C)C)C(C)(C)C)C(=O)O
– | 1900 nM | CCC[C@H](NC(=O)[C@@H]1C[C@@H](OCc2ccccc2)CN1C(=O)[C@@H](NC(=O)[C@@H](NC(=O)[C@H](CC(=O)O)NC(=O)[C@H](CC(=O)O)NC(C)=O)[C@@H](C)CC)C(C)C)C(=O)O (Ac-DDIV[Hyp](Bn)[Nva]-OH)
– | 1600 nM | C=C[C@@H]1C[C@]1(NC(=O)[C@@H]1C[C@@H](Oc2cc(-c3ccccc3)nc3cc(OC)ccc23)CN1C(=O)CC(C)(C)C)C(=O)O
– | 310 nM | C=C[C@@H]1C[C@]1(NC(=O)[C@@H]1C[C@@H](Oc2cccc3ccccc23)CN1C(=O)[C@@H](NC(=O)OC(C)(C)C)C(C)(C)C)C(=O)O
– | 350 nM | COc1ccc2c(O[C@@H]3C[C@@H](C(=O)NC4(C(=O)O)CC4)N(C(=O)[C@@H](NC(=O)OC(C)(C)C)C(C)(C)C)C3)cc(-c3ccccc3)nc2c1
– | 29000 nM | C=C[C@@H]1C[C@]1(NC(=O)[C@@H]1C[C@@H](Oc2ccncc2)CN1C(=O)[C@@H](NC(=O)OC(C)(C)C)C(C)(C)C)C(=O)O
– | 56000 nM | COc1ccc2c(O[C@@H]3C[C@@H](C(=O)NCC(=O)O)N(C(=O)[C@@H](NC(=O)OC(C)(C)C)C(C)(C)C)C3)cc(-c3ccccc3)nc2c1
